In general, AUC refers to concentration integrated over time. Read a low AUC as less exposure.

Series [1] has as its system carriers on the epithelial cells of the small intestines. To be noted: cefadroxil concomitantly administered with cefalexine; cited from earlier work.
For series [2] the following is noted: with administration of cimetidine, concomitant use with ketoconazole; cited from earlier work.
Series [3] has as its system CYP3A4. The experiment in a line: Test Example 4: midazolam plasma AUC in dogs, alone or with concomitant ketoconazole. To be noted: male, beagle, dog, po, 4 mg/dog.
Procedure: (§1) (1) Aqueous solution for oral administration containing midazolam: After preparing commercial midazolam injectable liquid (brand name: Dormicum® injection) to a concentration of 0.2 mg/ml with aqueous hydrochloric acid solution (pH of 3), HPMC2910 was added at 3-times the amount of midazolam to obtain a liquid for oral administration.
The aqueous solution for oral administration containing midazolam was orally administered(4 mg/dog) using a catheter for oral administration to male beagle dogs (n=2) that had been fasted for approximately 20 hours.
In series [4] the test system is CYP3A4. The experiment in a line: Test Example 3: midazolam plasma AUC in dogs, alone or with concomitant diltiazem. The note with it: male, beagle, dog, po, 4 mg/dog.
Procedure: The aqueous solution for oral administration containing midazolam was orally administered (4 mg/dog) using a catheter for oral administration to a male beagle dogs (n=3) that had been fasted for approximately 20 hours.
Series [5] concerns CYP3A4. Kind of series: Test Example 2: midazolam plasma AUC in dogs, alone or with concomitant conivaptan. To be noted: male, beagle, dog, po, 4 mg/dog.
Procedure: The following experiments were conducted using midazolam, which is metabolized CYP3A4, as a concomitant drug of conivaptan hydrochloride.
as §1
After administration, blood was collected from the veins of the front legs and the plasma concentration of midazolam was determined by the HPLC/UV method over time.
Thirty minutes after administration the aqueous solution for oral administration containing midazolam was orally administered using a catheter for oral administration (4 mg/dog). After midazolam administration, blood was collected from the veins of the front legs and the plasma concentration of midazolam was determined by the HPLC/UV method over time.
Thirty minutes after administration an aqueous solution for oral administration containing midazolam (4 mg/dog) was orally administered using a catheter for oral administration. After midazolam administration, blood was collected from the veins of the front legs and the plasma concentration of midazolam was determined by the HPLC/UV method over time.

With `CC1=C(C(=O)O)N2C(=O)[C@@H](NC(=O)[C@H](N)c3ccc(O)cc3)[C@H]2SC1` [cefadroxil], in series [1], the “change in cefadroxil plasma concentration” value is “reduction by approximately half”.

With `CN/C(=N/CCSCc1nc[nH]c1C)NC#N` [cimetidine], in series [2], the “gastric pH” value is given as 3 to 5.

Take `Cc1ncc2n1-c1ccc(Cl)cc1C(c1ccccc1F)=NC2` [midazolam]: the AUC in the series with CYP3A4 [3] came out at 68.7 ng·h/mL; in the series on CYP3A4 [4], 55 ng·h/mL; in the series with CYP3A4 [5], 9 ± 6 ng·h/mL.

The record behind these values is US6761895B2, “Drug delivery system for averting pharmacokinetic drug interaction and method thereof” (priority 2000, dated 2004).
